Experimental data from patent publication US12428370B2, “Haloallylamine dual amine oxidase inhibitors” (Syntara Limited, priority 2020, dated 2025).
Where a name gives a salt, the structure may show the parent alone.

What was measured:
recombinant human MAO-A = biological target: T1, recombinant human MAO-A (Homo sapiens, UniProt P21397); experiment: Inhibition of human recombinant MAO-A; type: biochemical; settings: incubation time of 2 hours, tyramine 100 μM
T1 construct: purchased Sigma Aldrich
T1 sequence (P21397 1-527): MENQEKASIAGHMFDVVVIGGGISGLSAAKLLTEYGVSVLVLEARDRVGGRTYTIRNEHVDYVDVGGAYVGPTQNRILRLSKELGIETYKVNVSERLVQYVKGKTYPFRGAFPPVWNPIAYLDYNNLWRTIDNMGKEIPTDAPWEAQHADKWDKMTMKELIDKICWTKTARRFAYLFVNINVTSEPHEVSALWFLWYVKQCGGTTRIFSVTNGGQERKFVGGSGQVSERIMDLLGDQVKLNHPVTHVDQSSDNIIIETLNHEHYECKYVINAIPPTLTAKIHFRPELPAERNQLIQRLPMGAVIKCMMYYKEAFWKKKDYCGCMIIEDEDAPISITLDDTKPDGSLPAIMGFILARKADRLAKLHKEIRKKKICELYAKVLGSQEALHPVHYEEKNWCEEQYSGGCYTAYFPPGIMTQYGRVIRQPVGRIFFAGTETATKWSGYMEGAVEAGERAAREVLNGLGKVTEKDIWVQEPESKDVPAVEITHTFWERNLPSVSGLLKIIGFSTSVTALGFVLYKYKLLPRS
Description: Method to Determine the Ability of Compounds of Formula I to Inhibit Human Recombinant MAO-A
The selectivity of the compounds of this invention was tested by determining their ability to inhibit MAO-A activity in vitro, using recombinant human MAO-A (0.003 mg/mL; Sigma Aldrich). The assay was performed in a similar way as for human SSAO/VAP-1 (EXAMPLE 9) except, the substrate tyramine was used at 100 μM in place of benzylamine and the assay was run after an incubation time of 2 hours.

Recombinant human MAO-B = biological target: T2, Recombinant human MAO-B (Homo sapiens, UniProt P27338); experiment: Inhibition of human recombinant MAO-B; type: biochemical; settings: incubation time of 2 hours, benzylamine 100 μM
T2 construct: purchased Sigma Aldrich
T2 sequence (P27338 1-520): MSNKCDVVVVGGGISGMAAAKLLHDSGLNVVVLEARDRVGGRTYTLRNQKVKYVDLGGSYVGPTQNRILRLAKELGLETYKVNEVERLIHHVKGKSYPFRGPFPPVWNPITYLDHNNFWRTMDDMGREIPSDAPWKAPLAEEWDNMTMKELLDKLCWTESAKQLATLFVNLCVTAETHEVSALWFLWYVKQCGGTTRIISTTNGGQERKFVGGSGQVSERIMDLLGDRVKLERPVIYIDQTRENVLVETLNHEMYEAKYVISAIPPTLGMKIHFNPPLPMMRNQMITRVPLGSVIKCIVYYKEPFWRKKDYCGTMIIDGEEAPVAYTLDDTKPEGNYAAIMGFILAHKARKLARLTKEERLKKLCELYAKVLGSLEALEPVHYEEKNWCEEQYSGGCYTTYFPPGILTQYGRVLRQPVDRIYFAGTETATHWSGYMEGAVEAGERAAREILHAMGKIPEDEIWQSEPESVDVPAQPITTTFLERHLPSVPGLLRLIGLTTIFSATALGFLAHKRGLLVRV
Description: Method to Determine the Ability of Compounds of Formula I to Inhibit Human Recombinant MAO-B
The ability of the compounds of this invention to inhibit MAO-B activities in vitro was tested. Recombinant human MAO-B (0.06 mg/mL; Sigma Aldrich) was used as source of MAO-B enzyme activities.

[1] = biological target: T3, Adipose Tissue SSAO/VAP-1 (Mus musculus, UniProt O70423); experiment: Mouse adipose tissue SSAO/VAP-1 activity after oral administration; type: in vivo; settings: for SSAO/VAP-1 activity in adipose tissue: C57BL/6J mice, single oral dose, FIG. 8
T3 construct: from tissue; host or cells: abdominal fat of C57BL/6J and mdx (C57BL/10ScSn-Dmdmdx/J) mice
T3 sequence (O70423 1-765): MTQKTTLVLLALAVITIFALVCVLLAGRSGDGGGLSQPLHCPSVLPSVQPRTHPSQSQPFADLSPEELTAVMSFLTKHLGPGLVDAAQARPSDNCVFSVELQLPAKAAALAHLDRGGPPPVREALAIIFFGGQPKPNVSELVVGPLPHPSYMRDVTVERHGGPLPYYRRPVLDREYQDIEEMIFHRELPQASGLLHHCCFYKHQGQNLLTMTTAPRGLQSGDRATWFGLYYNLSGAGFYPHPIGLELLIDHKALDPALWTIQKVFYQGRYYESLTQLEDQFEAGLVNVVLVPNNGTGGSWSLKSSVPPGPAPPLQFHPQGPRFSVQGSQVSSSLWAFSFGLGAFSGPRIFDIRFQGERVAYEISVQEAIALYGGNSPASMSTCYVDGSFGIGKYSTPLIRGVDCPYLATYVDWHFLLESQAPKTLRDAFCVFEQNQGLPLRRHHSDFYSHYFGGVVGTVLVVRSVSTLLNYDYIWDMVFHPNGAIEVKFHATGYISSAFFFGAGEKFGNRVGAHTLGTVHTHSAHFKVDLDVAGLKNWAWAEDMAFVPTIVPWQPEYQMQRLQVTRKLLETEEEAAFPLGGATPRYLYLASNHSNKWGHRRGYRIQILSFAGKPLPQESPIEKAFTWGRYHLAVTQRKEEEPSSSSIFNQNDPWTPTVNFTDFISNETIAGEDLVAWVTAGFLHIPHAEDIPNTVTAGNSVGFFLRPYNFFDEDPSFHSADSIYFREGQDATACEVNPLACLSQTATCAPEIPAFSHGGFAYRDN
Description: Mice were orally administered the compound under study and sacrificed at various time points and abdominal fat, muscle and heart tissue collected.
SSAO/VAP-1 activity in the adipose tissue was determined as described in EXAMPLE 13.
Activity of the treated samples was analyzed using the fluorometric method described in EXAMPLE 9 for SSAO/VAP-1 activity, EXAMPLE 10 for MAO-B and EXAMPLE 11 for MAO-A activity (FIG. 8 and FIG. 9).

phospholipidosis = experiment: Phospholipidosis cell-based fluorescence assay; settings: concentrations up to 100 μM
Description: Assessment of the Potential of Compound 1 to Induce Phospholipidosis in a Cell-Based Fluorescence Assay.
Compound 1 was tested in vitro for the potential to induce phospholipidosis according to the method outlined by Fujimura et. al. (Experimental and Toxicologic Pathology, 2007, 58, 375-382) at concentrations up to 100 μM.

Compound | IC50 (recombinant human MAO-A) [nM] | IC50 (Recombinant human MAO-B) [nM] | SSAO/VAP-1 activity in adipose tissue ([1]; 24-hour time point) | SSAO/VAP-1 activity in adipose tissue ([1]; various doses, 4 hours after administration) | adipose tissue SSAO/VAP-1 activity ([1]; mdx mice (C57BL/10ScSn-Dmdmdx/J), oral, FIG. 10) | effect on cell viability (phospholipidosis) | effect on the cellular phenotype (phospholipidosis) (phospholipidosis)
NC/C(=C\F)C1Cc2ccccc2O1 (single isomer, unassigned; (-)) [PXS-5131, (−)-(E)-2-(2,3-Dihydrobenzofuran-2-Yl)-3-Fluoroprop-2-En-1-Amine Hydrochloride] | 300 to 3000 | – | – | – | – | – | –
N#Cc1ccc(OC/C(=C/F)CN)cc1 [Compound 1, (E)-4-((2-(aminomethyl)-3-fluoroallyl)oxy) benzonitrile] | > 30000 | < 50 | inhibition of the enzyme activity is still evident | dose-related reduction | completely inhibits | no effect | no effect
